# Experimental data reported in US12540173B2, “Methods of treating cancer by targeting ZSCAN4 activity in cancer stem cells” (University of Maryland, Baltimore, priority 2019, dated 2026).
# Like-named read-outs stand apart in the source and are kept apart here.
# How the values were obtained:
# [1] = test system: ZSCAN4 depleted Tu167 cells; settings: increasing doses, ZSCAN4 depleted Tu167 cells compared to isogenic NTC shRNA cells, MTT
# Source text: FIG. 14. […] All data shown as mean±S.E.M. observed in triplicate in at least three independent experiments. Asterisks indicate: *p<0.05, **p<0.01, ***p<0.001.
# Another hallmark of CSCs is multi-drug resistance, a major factor contributing to cancer recurrence. Therefore, we examined the role of ZSCAN4 in response to genotoxic drugs. To define the effect of ZSCAN4 on drug resistance, we measured cell viability after increasing doses of the DNA damaging drugs in ZSCAN4 depleted and control Tu167 cells.
# tet-ZSCAN4 cells = assay: Dox-regulated ZSCAN4 induction and clearance, immunoblot; assay type: cell-based, human
# Protocol: FIG. 9. A, An illustration of the tet-ZSCAN4 expression vector. B, Image of tet-ZSCAN4 (Tu167) cells showing expression of GFP. C, Immunoblot analyses indicate ZSCAN4 is tightly regulated by Dox and localizes to the nucleus; Controls: LDH (cytosol), Lamin-B (nucleus). D, Doxycycline addition to the culture medium (Dox+) induces ZSCAN4 within 6 hours.
# Immunoblot Assays. Cytosolic proteins were extracted by Cytoskeleton buffer (10 mM PIPES, 300 mM sucrose, 100 mM NaCl, 3 mM MgCl2, 1 mM EGTA and 0.5% Triton X100), and nucleoplasm fraction was isolated. Next, pellets were lysed in urea solution (8 M Urea in 0.01 Tris pH 8+0.1M NaH2PO4) and sonicated. Samples were electrophoresed in polyacrylamide gels. PVDF membranes were blocked with 5% nonfat milk or Superblock (Thermo Fisher Scientific) for 1 hour, then incubated overnight at 4° C. with the indicated primary antibodies in blocking solution (Table 2). Membranes were washed and incubated with secondary antibodies (1:5000) for 1 hour. Secondary antibodies were visualized by ECL Chemiluminescence (ThermoFisher Scientific). […]
# [2] = test system: OCT3/4, SOX2, KLF4 and NANOG; assay: qPCR of pluripotent stem cell factors after ZSCAN4 knockdown; assay type: cell-based, human; settings: vs NTC-shRNA
# Protocol: RNA extraction and Quantitative Reverse Transcriptase Polymerase Chain Reaction (qRT-PCR). One microgram of total RNA, isolated with Trizol, was reverse transcribed by Superscript III (Invitrogen) following the manufacturer's protocol. For qPCR, 10 ng cDNA was used per well in triplicate using SYBR green reaction mix (Roche) following the manufacturer's instructions with corresponding primers (Table 1). Reactions were run on the LightCycler 480 system (Roche). Fold induction was calculated by the delta-delta Ct method.
# ZSCAN4 shRNAs were tested (19-mer sense, a hairpin loop, and 19-mer anti-sense oligos): shRNA1 (SEQ ID NO:3): 5′-[…] G-3′, shRNA2 (SEQ ID NO:4): 5′-[…] TG-3, shRNA3 (SEQ ID NO:5): 5′-[…] T-3 and two were cloned into the HuSH shRNA Plasmid pRFP-C-RS (Origene). Vectors were stably transfected into Tu167 or 012SCC cells by Effectene (QIAGEN) according to the manufacturer's protocol. As controls, isogenic cell lines were also generated expressing a non-targeting control shRNA (NTC-shRNA) or an Empty vector (same vector without an shRNA cassette). Cell lines were selected with 1 μg/ml Puromycin (ThermoFisher Scientific). Knockdown was confirmed by immunostaining and by qPCR.
# Next, we used two of the shRNA sequences (shRNA1 and shRNA2) to generate stable knockdown cell lines (in Tu167 and 012SCC cells). Isogenic cells for each cell line with NTC-shRNA, or empty vector were used as controls. […] Our results further indicate a decrease in the CSC markers BMI1 and EZH2 (FIG. 5C).
molecule,measurement,setting,value
"N.N.[Cl][Pt][Cl] [CPT, Cisplatin]",cell viability,[1],significantly decreased cell viability
same,cell viability,[1]; listed as Cisplatin,hypersensitivity
"C[C@H]1c2cccc(O)c2C(=O)C2=C(O)[C@]3(O)C(=O)C(C(N)=O)=C(O)[C@@H](N(C)C)[C@@H]3[C@@H](O)[C@@H]21 [Dox, Doxycycline]",time until ZSCAN4 is detectable after addition of Dox to the medium,tet-ZSCAN4 cells,≤ 6 h
"shRNA1: ZSCAN4 shRNA, SEQ ID NO:3: 5′-GAGAACGGTCCTAGGCCTGTCAAGAGGAGAACGGTCCTAGGCCTG-3′","expression of OCT3/4, SOX2, KLF4 and NANOG",[2]; 012SCC stable knockdown cells,significant downregulation
same,"expression of OCT3/4, SOX2, KLF4 and NANOG","[2]; 012SCC stable knockdown cells, listed as shRNA 1",decreased expression
same,"expression of OCT3/4, SOX2, KLF4 and NANOG",[2]; Tu167 stable knockdown cells,significant downregulation
same,"expression of OCT3/4, SOX2, KLF4 and NANOG","[2]; Tu167 stable knockdown cells, listed as shRNA 1",decreased expression
"shRNA2: ZSCAN4 shRNA, SEQ ID NO:4: 5′-GATATCAGACCTACGGGTGTCAAGAGGATATCAGACCTACGGGTG-3′","expression of OCT3/4, SOX2, KLF4 and NANOG",[2]; 012SCC stable knockdown cells,significant downregulation
same,"expression of OCT3/4, SOX2, KLF4 and NANOG","[2]; 012SCC stable knockdown cells, listed as shRNA 2",decreased expression
same,"expression of OCT3/4, SOX2, KLF4 and NANOG",[2]; Tu167 stable knockdown cells,significant downregulation
same,"expression of OCT3/4, SOX2, KLF4 and NANOG","[2]; Tu167 stable knockdown cells, listed as shRNA 2",decreased expression
Bleomycin [BLM],cell viability,[1],dramatically reduced cell viability
same,cell viability,[1]; listed as Bleomycin,hypersensitivity
